Results on 13 compounds are retold here after patent US20210284638A1 (Saint Louis University, priority 2018, published 2021).

What all share (format): binding
The target in assay [1] is T1, Recombinant human integrin αVβ3 (Homo sapiens, UniProt P05106+P06756).
T1 construct: purchased R&D Systems 3050-AV
The experiment in a line: Solid Phase Receptor Assay for αVβ3 function. Particulars: plate-bound human vitronectin; read-out: αVβ3 SPRA IC50. As for the experimental part: C. […] Wells were washed 3 times with 150 μL TBS+ and then 150 μL of blocking buffer (TBS+ with 1% bovine serum albumin, Sigma A7906) was added. The plate was incubated for 1 hr at 37° C. and then washed 3× with TBS+ buffer. […] Compounds were diluted to 20 μM and then 1 μL was added to each well of the plate according to a standard template with each sample repeated in triplicate. After incubation for two hours at room temperature, the plate was washed 3× with 150 μL of TBS+ buffer. To each well, 50 μL of biotinylated anti-αV antibody (R&D Systems, BAF1219) at 0.5 μg/mL in TBS+/0.1% BSA were added and the plate covered and incubated for 1 hr at room temperature. After washing the plate 3× with 150 μL of TBS+ buffer, 50 μL of streptavidin-conjugated horseradish peroxidase (R&D Systems, DY998) diluted in TBS+ blocking buffer were added to the wells and the plate incubated for 20 min at room temperature. The plate was washed 3× with TBS+ buffer followed by 50 μL of TMB substrate (Sigma, T4444) added to each well in the dark and the plate was incubated for 25 min at room temperature. 25 μL of 1.0 M phosphoric acid was added as a stop solution and the plates were read at 450 nm using a Spectramax plate reader.

Assay [2] concerns the target T2, Recombinant human integrin αVβ8 (Homo sapiens, UniProt P06756+P26012).
T2 construct: purchased R&D Systems 4135-AV
The experiment in a line: Solid Phase Receptor Assay for αVβ8 function. Particulars: plate-bound human LAP; read-out: αVβ8 SPRA IC50. As for the experimental part: F. Solid Phase Receptor Assay (SFRA) for αVβ8 Function
Wells were washed 3 times with 150 μL TBS+ and then 150 μL of blocking buffer (TBS+ with 1% bovine serum albumin, Sigma A7906) was added. The plate was incubated for 1 hr at 37° C. and then washed 3× with TBS+. […] Compounds were diluted to 20 μM and 1 μL was added to each well of the plate according to a standard template with each sample repeated in triplicate. After incubation for two hours at room temperature, the plate was washed 3× with 150 μL of TBS+. To each well, 50 μL of biotinylated anti-αV antibody (R&D Systems, BAF1219) at 1 μg/mL in TBS+/0.1% BSA were added and the plate was covered and incubated for 1 hr at room temperature. After washing the plate 3× with 150 μL of TBS+ buffer, 50 μL of streptavidin-conjugated horseradish peroxidase (R&D Systems, DY998) diluted in TBS+ blocking buffer were added to the wells and the plate incubated for 20 min at room temperature. The plate was washed 3× with TBS+ followed by 50 μL of TMB substrate (Sigma T4444) added to each well in the dark and the plate incubated for 10 min at room temperature. 25 μL of 1.0 M phosphoric acid was added as a stop solution and the plates were read at 450 nm using a Spectramax plate reader.

Assay [3] addresses T3, Recombinant human integrin α5β1 (Homo sapiens, UniProt P05556+P08648).
T3 construct: purchased R&D Systems 3230-A5
Kind of assay: Solid Phase Receptor Assay (SPRA) for α5β1 function. Particulars: plate-bound human fibronectin. As for the experimental part:
A. Solid Phase Receptor Assay (SPRA) for α5β1 Function
Wells were washed 3 times with 150 μL TBS+ and then 150 μL of blocking buffer (TBS+ with 1% bovine serum albumin, Sigma A7906) was added. The plate was incubated for 1 hr at 37° C. and then washed 3× with TBS+ buffer. […] Compounds were diluted to 20 μM and then 1 μL was added to each well of the plate according to a standard template with each sample repeated in triplicate. After incubation for two hours at room temperature, the plate was washed 3× with 150 μL of TBS+ buffer. To each well, 50 μL of biotinylated anti-α5 antibody (R&D Systems, BAF1864) at 0.5 μg/mL in TBS+/0.1% BSA were added and the plate covered and incubated for 1 hr at room temperature. After washing the plate 3× with 150 μL of TBS+ buffer, 50 μL of streptavidin-conjugated horseradish peroxidase (R&D Systems, DY998) diluted in TBS+ blocking buffer were added to the wells and the plate incubated for 20 min at room temperature. The plate was washed 3× with TBS+ buffer followed by 50 μL of room temperature TMB substrate (Sigma, T4444) added to each well in the dark and the plate incubated for 25 min at room temperature. 25 μL of 1.0 M phosphoric acid was added as a stop solution and the plates were read at 450 nm using a Spectramax plate reader.

Assay [4] concerns the target T4, Recombinant human integrin αVβ5 (Homo sapiens, UniProt P06756+P18084).
T4 construct: purchased R&D Systems 2528-AV
Kind of assay: Solid Phase Receptor Assay (SPRA) for αVβ5 function. Particulars: plate-bound human vitronectin. On the procedure:
D. Solid Phase Receptor Assay (SPRA) for αVβ5 Function
Wells were washed 3 times with 150 μL TBS+ and then 150 μL of blocking buffer (TBS+ with 1% bovine serum albumin, Sigma A7906) was added. The plate was incubated for 1 hr at 37° C. and then washed 3× with TBS+ buffer. […] Compounds were diluted to 20 μM and then 1 μL was added to each well of the plate according to a standard template with each sample repeated in triplicate. After incubation for two hours at room temperature, the plate was washed 3× with 150 μL of TBS+ buffer. To each well, 50 μl of biotinylated anti-αV antibody (R&D Systems, BAF1219) at 0.5 μg/mL in TBS+/0.1% BSA at 0.5 μg/mL were added and the plate covered and incubated for 1 hr at room temperature. After washing the plate 3× with 150 μL of TBS+ buffer, 50 μL of streptavidin-conjugated horseradish peroxidase (R&D Systems, DY998) diluted in TBS+ blocking buffer were added to the wells and the plate incubated for 20 min at room temperature. The plate was washed 3× with TBS+ buffer followed by 50 μL of TMB substrate (Sigma T4444) added to each well in the dark and the plate incubated for 5 min at room temperature. 25 μL of 1.0 M phosphoric acid was added as a stop solution and the plates were read at 450 nm using a Spectramax plate reader.

Counter-ions that a name gives are not always drawn.

T4 sequence (P06756 31-992 limits assumed): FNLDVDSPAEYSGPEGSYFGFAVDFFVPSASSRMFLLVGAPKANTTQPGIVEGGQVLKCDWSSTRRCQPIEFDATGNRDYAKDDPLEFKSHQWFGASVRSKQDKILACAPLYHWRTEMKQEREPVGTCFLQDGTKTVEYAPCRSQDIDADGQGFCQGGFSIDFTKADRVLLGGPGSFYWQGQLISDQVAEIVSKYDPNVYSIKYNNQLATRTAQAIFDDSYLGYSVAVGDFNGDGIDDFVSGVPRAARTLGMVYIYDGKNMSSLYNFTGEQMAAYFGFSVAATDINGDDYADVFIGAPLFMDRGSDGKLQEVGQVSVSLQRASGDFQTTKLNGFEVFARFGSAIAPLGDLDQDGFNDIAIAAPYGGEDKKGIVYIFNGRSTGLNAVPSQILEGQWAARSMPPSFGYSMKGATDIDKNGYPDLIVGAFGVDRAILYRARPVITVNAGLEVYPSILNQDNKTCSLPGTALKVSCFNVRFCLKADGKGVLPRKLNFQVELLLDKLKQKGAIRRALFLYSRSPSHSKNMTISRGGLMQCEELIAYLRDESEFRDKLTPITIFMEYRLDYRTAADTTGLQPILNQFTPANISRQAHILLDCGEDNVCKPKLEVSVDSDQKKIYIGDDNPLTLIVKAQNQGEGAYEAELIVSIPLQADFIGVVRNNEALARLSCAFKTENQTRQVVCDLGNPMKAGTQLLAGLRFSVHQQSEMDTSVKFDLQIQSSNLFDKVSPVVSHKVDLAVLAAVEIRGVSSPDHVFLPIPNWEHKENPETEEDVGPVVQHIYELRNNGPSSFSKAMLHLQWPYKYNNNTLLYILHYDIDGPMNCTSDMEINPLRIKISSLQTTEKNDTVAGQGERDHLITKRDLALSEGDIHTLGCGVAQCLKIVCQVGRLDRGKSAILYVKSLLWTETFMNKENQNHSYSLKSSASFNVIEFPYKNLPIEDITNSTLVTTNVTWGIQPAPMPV
T4 sequence (P18084 24-719 limits assumed): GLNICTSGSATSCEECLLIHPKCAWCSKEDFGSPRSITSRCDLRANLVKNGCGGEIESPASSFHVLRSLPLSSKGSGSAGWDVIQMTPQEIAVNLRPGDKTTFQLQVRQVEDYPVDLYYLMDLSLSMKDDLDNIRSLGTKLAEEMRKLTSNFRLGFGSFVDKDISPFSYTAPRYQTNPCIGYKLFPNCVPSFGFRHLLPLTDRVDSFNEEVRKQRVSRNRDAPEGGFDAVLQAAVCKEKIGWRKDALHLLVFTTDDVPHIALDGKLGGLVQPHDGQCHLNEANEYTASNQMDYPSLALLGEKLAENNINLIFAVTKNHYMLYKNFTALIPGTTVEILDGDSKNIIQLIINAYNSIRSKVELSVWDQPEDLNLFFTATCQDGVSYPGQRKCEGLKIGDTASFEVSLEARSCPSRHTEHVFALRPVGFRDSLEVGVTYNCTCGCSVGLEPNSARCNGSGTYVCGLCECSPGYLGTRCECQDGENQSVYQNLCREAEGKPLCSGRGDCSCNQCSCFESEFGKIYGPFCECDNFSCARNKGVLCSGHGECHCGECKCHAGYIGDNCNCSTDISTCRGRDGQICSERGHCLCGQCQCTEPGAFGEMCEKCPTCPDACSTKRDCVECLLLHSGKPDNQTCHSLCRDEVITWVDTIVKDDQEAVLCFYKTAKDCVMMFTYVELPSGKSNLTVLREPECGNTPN
T2 sequence (P06756 31-992 limits assumed): as the sequence (P06756 31-992 limits assumed) above
T2 sequence (P26012 43-684 limits assumed): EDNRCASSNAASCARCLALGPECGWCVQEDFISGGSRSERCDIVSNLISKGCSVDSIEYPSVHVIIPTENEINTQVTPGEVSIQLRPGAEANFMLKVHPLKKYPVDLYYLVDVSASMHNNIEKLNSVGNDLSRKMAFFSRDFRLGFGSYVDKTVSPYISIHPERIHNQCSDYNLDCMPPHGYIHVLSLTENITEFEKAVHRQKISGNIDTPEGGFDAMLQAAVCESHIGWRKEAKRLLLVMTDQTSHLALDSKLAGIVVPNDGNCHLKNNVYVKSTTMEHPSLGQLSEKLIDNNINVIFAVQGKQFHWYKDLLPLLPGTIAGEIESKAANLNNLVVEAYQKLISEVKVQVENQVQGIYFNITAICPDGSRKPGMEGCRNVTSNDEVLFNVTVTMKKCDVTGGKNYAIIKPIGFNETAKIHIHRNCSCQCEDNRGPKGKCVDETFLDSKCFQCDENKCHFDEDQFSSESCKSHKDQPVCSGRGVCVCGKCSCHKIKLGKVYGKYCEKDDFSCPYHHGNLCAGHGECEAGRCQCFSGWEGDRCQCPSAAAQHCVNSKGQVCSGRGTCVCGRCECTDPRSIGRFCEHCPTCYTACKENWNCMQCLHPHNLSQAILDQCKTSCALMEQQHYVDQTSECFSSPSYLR
T1 sequence (P06756 31-992 limits assumed): as the sequence (P06756 31-992 limits assumed) above
T1 sequence (P05106 27-718 limits assumed): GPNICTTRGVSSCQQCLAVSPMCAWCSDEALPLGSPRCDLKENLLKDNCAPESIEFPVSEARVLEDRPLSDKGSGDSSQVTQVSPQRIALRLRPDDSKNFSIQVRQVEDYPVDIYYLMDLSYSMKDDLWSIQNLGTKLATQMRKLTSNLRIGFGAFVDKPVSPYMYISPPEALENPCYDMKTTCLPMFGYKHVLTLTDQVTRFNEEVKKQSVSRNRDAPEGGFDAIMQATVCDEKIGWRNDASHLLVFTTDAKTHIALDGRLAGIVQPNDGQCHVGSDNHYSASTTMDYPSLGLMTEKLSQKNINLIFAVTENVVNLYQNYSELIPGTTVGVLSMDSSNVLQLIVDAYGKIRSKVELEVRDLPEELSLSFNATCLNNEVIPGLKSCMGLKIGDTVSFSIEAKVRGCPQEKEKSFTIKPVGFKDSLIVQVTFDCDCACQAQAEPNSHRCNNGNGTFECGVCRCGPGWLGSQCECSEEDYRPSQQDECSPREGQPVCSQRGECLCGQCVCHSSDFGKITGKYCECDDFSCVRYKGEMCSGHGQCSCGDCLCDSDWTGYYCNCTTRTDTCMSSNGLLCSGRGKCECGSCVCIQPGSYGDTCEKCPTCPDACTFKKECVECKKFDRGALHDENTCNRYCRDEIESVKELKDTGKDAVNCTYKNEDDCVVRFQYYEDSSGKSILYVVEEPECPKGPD
T3 sequence (P08648 42-995 limits assumed): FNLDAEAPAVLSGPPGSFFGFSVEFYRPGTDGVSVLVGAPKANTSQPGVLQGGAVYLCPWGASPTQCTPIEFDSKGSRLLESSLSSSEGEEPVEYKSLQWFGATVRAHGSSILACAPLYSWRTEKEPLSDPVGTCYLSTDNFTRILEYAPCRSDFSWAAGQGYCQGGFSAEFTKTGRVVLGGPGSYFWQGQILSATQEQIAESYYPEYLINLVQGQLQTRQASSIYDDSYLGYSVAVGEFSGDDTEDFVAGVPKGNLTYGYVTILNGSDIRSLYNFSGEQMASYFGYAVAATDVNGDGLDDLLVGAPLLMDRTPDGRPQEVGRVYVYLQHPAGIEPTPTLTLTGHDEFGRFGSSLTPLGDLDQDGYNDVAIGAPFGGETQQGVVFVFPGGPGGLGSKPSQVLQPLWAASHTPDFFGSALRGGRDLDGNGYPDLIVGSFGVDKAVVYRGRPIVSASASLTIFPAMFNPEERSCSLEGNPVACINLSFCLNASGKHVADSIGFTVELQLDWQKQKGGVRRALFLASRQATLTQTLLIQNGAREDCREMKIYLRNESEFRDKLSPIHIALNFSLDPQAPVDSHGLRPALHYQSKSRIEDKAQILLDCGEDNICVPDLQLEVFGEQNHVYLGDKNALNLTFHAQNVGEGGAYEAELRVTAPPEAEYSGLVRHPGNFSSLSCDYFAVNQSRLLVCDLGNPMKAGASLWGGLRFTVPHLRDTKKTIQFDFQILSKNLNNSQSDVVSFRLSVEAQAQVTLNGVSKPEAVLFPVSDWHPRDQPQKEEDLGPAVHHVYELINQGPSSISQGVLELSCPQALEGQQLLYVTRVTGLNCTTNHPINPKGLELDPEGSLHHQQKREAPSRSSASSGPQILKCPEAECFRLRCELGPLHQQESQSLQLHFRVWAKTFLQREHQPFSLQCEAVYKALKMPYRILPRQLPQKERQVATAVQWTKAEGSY
T3 sequence (P05556 21-728 limits assumed): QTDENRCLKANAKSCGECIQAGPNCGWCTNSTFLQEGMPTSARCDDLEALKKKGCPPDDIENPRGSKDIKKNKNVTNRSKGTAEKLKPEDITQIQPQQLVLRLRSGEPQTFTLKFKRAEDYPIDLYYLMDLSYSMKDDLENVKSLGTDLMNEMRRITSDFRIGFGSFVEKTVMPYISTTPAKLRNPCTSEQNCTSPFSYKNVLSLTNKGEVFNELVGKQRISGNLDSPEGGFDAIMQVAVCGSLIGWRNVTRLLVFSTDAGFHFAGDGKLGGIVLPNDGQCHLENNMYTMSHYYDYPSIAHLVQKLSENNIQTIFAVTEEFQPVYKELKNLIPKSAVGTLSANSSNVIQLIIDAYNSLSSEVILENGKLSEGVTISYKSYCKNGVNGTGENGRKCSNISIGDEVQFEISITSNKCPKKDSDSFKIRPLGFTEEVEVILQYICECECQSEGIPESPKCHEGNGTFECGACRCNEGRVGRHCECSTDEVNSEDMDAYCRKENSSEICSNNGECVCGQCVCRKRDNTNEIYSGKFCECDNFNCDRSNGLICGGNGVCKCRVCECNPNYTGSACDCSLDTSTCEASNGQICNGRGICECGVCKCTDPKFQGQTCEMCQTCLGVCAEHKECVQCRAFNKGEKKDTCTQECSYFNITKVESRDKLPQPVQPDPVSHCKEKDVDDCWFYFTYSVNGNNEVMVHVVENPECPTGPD

Broadly, the IC50 is the midpoint of a concentration-inhibition curve. For `COc1c(C(C)C)cc(C(CC(=O)O)Cc2csc(CCCc3ccc4c(n3)NCCC4)n2)cc1C(C)C` (stereo not shown) [Example 26, 3-(3,5-diisopropyl-4-methoxy-phenyl)-4-[2-[3-(5,6,7,8-tetrahydro-1,8-naphthyridin-2-yl)propyl]thiazol-4-yl]butanoic acid], the half-maximal inhibitory concentration (IC50) in assay [1] was 530 nM; in assay [2], 38 nM; in assay [3], 61 nM; in assay [4], 610 nM.

As for `CC(C)(C)c1cc(C(CC(=O)O)Cc2csc(CCCc3ccc4c(n3)NCCC4)n2)cc(C(C)(C)C)c1` (stereo not shown) [Example 27, 3-(3,5-di-tert-butylphenyl)-4-(2-(3-(5,6,7,8-tetrahydro-1,8-naphthyridin-2-yl)propyl)thiazol-4-yl)butanoic acid], the IC50 in assay [1] worked out at 2900 nM; in assay [2], 55 nM; in assay [3], 43 nM; in assay [4], 1100 nM.

Turning to `COc1ccc(C(C)(C)C)cc1C(CC(=O)O)Cc1csc(CCCc2ccc3c(n2)NCCC3)n1` (stereo not shown) [Example 28, 3-(5-(tert-butyl)-2-methoxyphenyl)-4-(2-(3-(5,6,7,8-tetrahydro-1,8-naphthyridin-2-yl)propyl)thiazol-4-yl)butanoic acid], the IC50 is 1500 nM in assay [1], 31 nM in assay [2], 25 nM in assay [3] and 440 nM in assay [4].

In the case of `COc1c(C(C)(C)C)cc(C(CC(=O)O)Cc2csc(CCCc3ccc4c(n3)NCCC4)n2)cc1C(C)(C)C` (stereo not shown) [Example 29, 3-(3,5-di-tert-butyl-4-methoxyphenyl)-4-(2-(3-(5,6,7,8-tetrahydro-1,8-naphthyridin-2-yl)propyl)thiazol-4-yl)butanoic acid], the IC50 turned out to be 1600 nM in assay [1], 87 nM in assay [2], 40 nM in assay [3] and 800 nM in assay [4].

With `CC(C)(C)c1cc(C(CC(=O)O)Cc2csc(CCCc3ccc4c(n3)NCCC4)n2)cc(C2(C(F)F)CC2)c1` (stereo not shown) [Example 30, 3-[3-tert-butyl-5-[1-(difluoromethyl)cyclopropyl]phenyl]-4-[2-[3-(5,6,7,8-tetrahydro-1,8-naphthyridin-2-yl)propyl]thiazol-4-yl]butanoic acid], the IC50 in assay [1] is 720 nM; in assay [2] it was 25 nM; in assay [3] it was 30 nM; in assay [4], 260 nM.

In the case of `CC(C)(C)c1cc(C(CC(=O)O)Cc2csc(CCCc3ccc4c(n3)NCCC4)n2)cc(C(C)(C)C(F)(F)F)c1` (stereo not shown) [Example 31, 3-[3-tert-butyl-5-(2,2,2-trifluoro-1,1-dimethyl-ethyl)phenyl]-4-[2-[3-(5,6,7,8-tetrahydro-1,8-naphthyridin-2-yl)propyl]thiazol-4-yl]butanoic acid], the IC50 in assay [1] was 2600 nM; in assay [2], 76 nM; in assay [3] it was 66 nM; in assay [4], 1500 nM.

Take `COCC1(c2cc(C(CC(=O)O)Cc3csc(CCCc4ccc5c(n4)NCCC5)n3)cc(C(C)(C)C)c2)CCOCC1` (stereo not shown) [Example 32, 3-[3-tert-butyl-5-[4-(methoxymethyl)tetrahydropyran-4-yl]phenyl]-4-[2-[3-(5,6,7,8-tetrahydro-1,8-naphthyridin-2-yl)propyl]thiazol-4-yl]butanoic acid]: the IC50 in assay [1] turned out to be 600 nM; in assay [2], 14 nM; in assay [3] it was 37 nM; in assay [4], 240 nM.

Regarding `CC(C)(C)c1ccc(C#N)c(C(CC(=O)O)Cc2csc(CCCc3ccc4c(n3)NCCC4)n2)c1` (stereo not shown) [Example 33, 3-(5-tert-butyl-2-cyano-phenyl)-4-[2-[3-(5,6,7,8-tetrahydro-1,8-naphthyridin-2-yl)propyl]thiazol-4-yl]butanoic acid], the IC50 in assay [1] came out at 38 nM; in assay [2], 8 nM; in assay [3], 0.7 nM; in assay [4], 32 nM.

Turning to `CC(C)(C)c1ccc(Br)c(C(CC(=O)O)Cc2csc(CCCc3ccc4c(n3)NCCC4)n2)c1` (stereo not shown) [Example 34], the IC50 in assay [1] worked out at 2500 nM; in assay [2], 140 nM; in assay [3], 69 nM; in assay [4], 360 nM.

For the compound `COc1ccc(C(F)(F)F)cc1C(CC(=O)O)Cc1csc(CCCc2ccc3c(n2)NCCC3)n1` (stereo not shown) [Example 35, 3-[2-methoxy-5-(trifluoromethyl)phenyl]-4-[2-[3-(5,6,7,8-tetrahydro-1,8-naphthyridin-2-yl)propyl]thiazol-4-yl]butanoic acid], the IC50 in assay [1] amounted to 78 nM; in assay [2], 51 nM; in assay [3], 88 nM; in assay [4] it was 69 nM.

`COc1ccc(C2(C(F)F)CC2)cc1C(CC(=O)O)Cc1csc(CCCc2ccc3c(n2)NCCC3)n1` (stereo not shown) [Example 36, 3-(5-(1-(difluoromethyl)cyclopropyl)-2-methoxyphenyl)-4-(2-(3-(5,6,7,8-tetrahydro-1,8-naphthyridin-2-yl)propyl)thiazol-4-yl)butanoic acid]: the IC50 turned out to be 840 nM in assay [1], 29 nM in assay [2], 7 nM in assay [3] and 150 nM in assay [4].

For `COc1ccc(C2=CCOCC2)cc1C(CC(=O)O)Cc1csc(CCCc2ccc3c(n2)NCCC3)n1` (stereo not shown) [Example 37, 3-[5-(3,6-dihydro-2H-pyran-4-yl)-2-methoxy-phenyl]-4-[2-[3-(5,6,7,8-tetrahydro-1,8-naphthyridin-2-yl)propyl]thiazol-4-yl]butanoic acid], the IC50 in assay [1] came out at 230 nM; in assay [2], 83 nM; in assay [3], 25 nM; in assay [4] it was 37 nM.

On to `COc1ccc(C2=CCOCC2)cc1[C@H](CC(=O)O)Cc1csc(CCCc2ccc3c(n2)NCCC3)n1` [Example 37A, (S)-3-(5-(3,6-dihydro-2H-pyran-4-yl)-2-methoxyphenyl)-4-(2-(3-(5,6,7,8-tetrahydro-1,8-naphthyridin-2-yl)propyl)thiazol-4-yl)butanoic acid trifluoroacetate], for which the IC50 in assay [1] is 160 nM; in assay [2], 43 nM; in assay [3], 17 nM; in assay [4], 31 nM.
